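48-hour exposure; five concentrations; linearly interpolated endpoints. TGI: total growth inhibition.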
Legend:
Assay in all cases: NCI-60 cell line screen, 48 h
[1] = tested on: OVCAR-5 ovarian
[2] = tested on: HOP-62 NSCLC
[3] = tested on: OVCAR-8 ovarian
[4] = tested on: M14 melanoma
[5] = tested on: TK-10 renal
[6] = tested on: OVCAR-4 ovarian
[7] = tested on: DMS 114 small cell lung
[8] = tested on: M19-MEL melanoma
[9] = tested on: HCT-116 colon
[10] = tested on: IGROV1 ovarian
[11] = tested on: SW-620 colon
[12] = tested on: RXF-631 renal
[13] = tested on: SNB-19 CNS
[14] = tested on: ACHN renal
[15] = tested on: 786-0 renal
[16] = tested on: HOP-92 NSCLC
[17] = tested on: RXF 393 renal
[18] = tested on: EKVX NSCLC
[19] = tested on: MALME-3M melanoma
[20] = tested on: K-562 leukemia
[21] = tested on: SNB-75 CNS
[22] = tested on: HT29 colon
[23] = tested on: NCI-H460 lung
[24] = tested on: SF-539 CNS
[25] = tested on: A549 NSCLC
[26] = tested on: CCRF-CEM leukemia
[27] = tested on: NCI-H522 lung
[28] = tested on: UACC-62 melanoma
[29] = tested on: OVCAR-3 ovarian
[30] = tested on: SK-MEL-2 melanoma
[31] = tested on: HOP-18 NSCLC
[32] = tested on: HCT-15 colon
[33] = tested on: SK-MEL-28 melanoma
[34] = tested on: NCI-H23 lung
[35] = tested on: RPMI-8226 leukemia
[36] = tested on: SK-OV-3 ovarian
[37] = tested on: UO-31 renal
[38] = tested on: SF-295 CNS
[39] = tested on: DLD-1 colon
[40] = tested on: UACC-257 melanoma
[41] = tested on: U251 CNS
[42] = tested on: SF-268 CNS
[43] = tested on: KM20L2 colon
[44] = tested on: A498 renal
[45] = tested on: DMS 273 small cell lung
[46] = tested on: KM12 colon
[47] = tested on: LOX IMVI melanoma
[48] = tested on: HL-60(TB) leukemia
[49] = tested on: SN12C renal
[50] = tested on: COLO 205 colon
[51] = tested on: LXFL 529 NSCLC
[52] = tested on: SNB-78 CNS
[53] = tested on: MOLT-4 leukemia
[54] = tested on: HCC-2998 colon
[55] = tested on: NCI-H226 lung
[56] = tested on: SK-MEL-5 melanoma

Measured: TGI

O=C(CC(=O)N1N=C(n2ccc3ccccc32)CC1c1ccccc1)Nc1ccc(Cl)cc1 (stereo not given)
not listed: [55] | [56]
> 100 µM: all other assays above

Cc1cc2nc3c(=O)[nH]c(=O)nc-3n(CC(O)C(O)C(O)CO)c2cc1N (stereo not given)
not listed: [1] | [2] | [17] | [19] | [27] | [39] | [40] | [41] | [42] | [43]
> 100 µM: all other assays above
